Laboratory results as given in article PMC6214120 (International Journal of Molecular Sciences, 2018).
Read-outs that look alike come from different tables or passages of the source.

Legend:
[1] = system: chicken; experiment: In vivo experiments with BCRP inhibitor Ko143 in chicken; details: in vivo experiments with Ko143 as additional BCRP inhibitor were unsuccessful
[2] = Pharmacokinetic studies of FFC in broilers; type: in vivo, Arbor Acres (AA) broilers; details: for bioavailability: read-out: F (absolute bioavailability); for AUC(0-t): read-out: AUC0~12h; for half-life: read-out: T1/2β (converted)
Experimental: Ten 4-week and fifteen 8-week old AA broilers were used in this study and divided into five groups (5 birds in each group) as follows: Group I, 4-week old birds given FFC orally with a single dose of 20 mg/kg through crop tube gavage; group II, 8-week old birds given FFC orally with a single dose of 20 mg/kg through crop tube gavage; group III, 4-week old birds given FFC intravenously with a single dose of 10 mg/kg through the left brachialis vein; group IV, 8-week old birds given FFC intravenously with a single dose of 10 mg/kg through the left brachialis vein; group V, 8-week old birds orally given FFC (20 mg/kg) plus gefitinib (100 mg/kg, an inhibitor of BCRP) through crop tube gavage. Groups I, II, III, and IV were used to study the influence of age-dependent BCRP expression on FFC pharmacokinetics. The data from group II and group V were used to further analyze the effects of BCRP on FFC pharmacokinetics. […] Plasma was rapidly harvested by centrifugation at 5000 g for 5 min and stored at −80 °C until assayed. The extraction procedures and HPLC method were modified from the previous method. All plasma samples were analyzed on Thermo fisher U3000 high-performance liquid chromatography (HPLC) system. […] The acetonitrile supernatants were combined, evaporated under nitrogen at 40 °C, and dissolved in 0.2 mL of mobile phase, from which 20 μL was injected into HPLC system. The mobile phase consisted of a mixture of acetonitrile-water at a ratio of 20:80 (v/v). The detection conditions as the follows: wavelength at 224 nm, the column temperature at 35 °C and the flow rate at 1 mL/min. The calibration samples were prepared with eight different FFC concentrations using blank plasma. […] The average of inter- and intra-day precision (RSD) was <11%. […] Pharmacokinetic calculations were performed on each individual set of data using 3p97 practical pharmacokinetic software (Version 97, Chinese Pharmacologic Association, Beijing, China). Least-squares fits were determined for both biexponential (two-compartment model) and single exponential (one-compartment model) equations. The number of exponential terms required to describe the plasma concentration-time data for each boiler chickens was determined by application of Akaike’s Information Criterion (AIC Method). The area under the concentration-time curve (AUC) was calculated according to the linear trapezoidal method.

[3] = system: chicken BCRP (Abcg2); experiment: Bidirectional transport assay in MDCK-chAbcg2 cells; type: in vitro ADME; details: chicken, FFC 50 μM, 4 h
Experimental: (§1) Wild-type MDCK cells and MDCK-chAbcg2 cells were seeded into Transwell® inserts (Catalogue number 3460, Corning Coster Corp. Acton, MA, USA) in 12-well plates at a density of 1 × 10^5 cells/insert and cultured for 5 days. The cell layer integrity was tested before transport by measuring transepithelial electrical resistance (TEER) across the apical (AP) and the basolateral (BL) sides of the cell line using a Millicell-ERS epithelial voltometer (Millipore, Burlington, MA, USA). The bidirectional transport experiments were conducted with the transport buffers containing either FFC (50 μM) or the mixture of FFC and gefitinib instead of the blank medium or the medium contain gefitinib (100 μM). After the cells were incubated with transport buffers for 4 h, the samples collected from the receiving sides were submitted for HPLC analysis. The TEER values of each monolayer were checked again at the end of the transport studies to ensure the integrities of cell monolayers during the whole transport analysis. According to FDA guidance a drug with a net efflux ratio that is over 2.0 will be considered as a potential substrate of an efflux pump. The apparent permeability coefficients (Papp) across cell monolayer were calculated as follows: Papp = (dQ/dt)/(A × C0), where A is the area of filter membrane, C0 is the initial concentration of the tested drug, dQ is the amount of transported drug, and dt is time elapsed. The efflux ratio (ER) was calculated from (Papp B→A)/(Papp A→B) and the net efflux ratio (NER) was calculated from […]. Each group has 5 cell monolayers, and the experiment was repeated three times.

[4] = system: chicken BCRP; experiment: as above; type: in vitro ADME; details: MDCK-chAbcg2 vs MDCK, gefitinib as inhibitor
Experimental: as §1

[5] = Bidirectional transport assay in wild-type MDCK cells; type: in vitro ADME, canine; details: dog, FFC 50 μM
Experimental: as §1

[6] = Arbor Acres (AA) broiler, plasma, iv, 10 mg/kg, intravenous 10 mg/kg, 4-week old broilers
[7] = Arbor Acres (AA) broiler, plasma, iv, 10 mg/kg, intravenous 10 mg/kg, 8-week old broilers
[8] = Arbor Acres (AA) broiler, plasma, po, 20 mg/kg, oral 20 mg/kg, 4-week old broilers
[9] = Arbor Acres (AA) broiler, plasma, po, 20 mg/kg, oral 20 mg/kg, 8-week old broilers
[10] = Arbor Acres (AA) broiler, plasma, po, 20 mg/kg, with gefitinib 100 mg/kg (BCRP inhibitor, co-dosed orally), oral 20 mg/kg, 8-week old broilers administered gefitinib (100 mg/kg)
[11] = oral 20 mg/kg, 4-week old broilers
[12] = oral 20 mg/kg, 4 week-old broilers
[13] = oral 20 mg/kg, 8-week old broilers
[14] = oral 20 mg/kg, 8-week old broilers administered gefitinib (100 mg/kg)
[15] = oral 20 mg/kg, 8-week old broilers with oral gefitinib 100 mg/kg
[16] = oral 20 mg/kg, 8 week old broilers
[17] = MDCK-chAbcg2, with gefitinib (100 μM)
[18] = MDCK-chAbcg2, without gefitinib

COc1ccc2c3c([nH]c2c1)[C@H](CC(C)C)N1C(=O)[C@H](CCC(=O)OC(C)(C)C)NC(=O)[C@@H]1C3 [Ko143]
Toxicity in chicken [1]: observed toxicity in chicken

CS(=O)(=O)c1ccc([C@@H](O)[C@@H](CF)NC(=O)C(Cl)Cl)cc1 [florfenicol, Florfenicol]
bioavailability ([2]; Arbor Acres (AA) broiler, chicken, plasma, po, with gefitinib 100 mg/kg (BCRP inhibitor, co-dosed orally), oral 20 mg/kg, 8-week old broilers administered gefitinib (100 mg/kg)): 78.4%
AUC(0-t) [2, 6]: 5.41 ± 0.31 µg·h/mL
half-life [2, 6]: 60 ± 51 min
Vd ([2]; Arbor Acres (AA) broiler, plasma, iv, 10 mg/kg, intravenous 10 mg/kg, 4-week old broilers, read-out: Vd): 1.51 ± 0.62 L/kg
AUC(0-t) [2, 7]: 5.11 ± 1.89 µg·h/mL
half-life [2, 7]: 47.4 ± 10.8 min
Vd ([2]; Arbor Acres (AA) broiler, plasma, iv, 10 mg/kg, intravenous 10 mg/kg, 8-week old broilers, read-out: Vd): 1.18 ± 0.29 L/kg
bioavailability ([2]; Arbor Acres (AA) broiler, plasma, po, 20 mg/kg, oral 20 mg/kg vs i.v. 10 mg/kg, 4-week old broilers): 79.3%
bioavailability ([2]; Arbor Acres (AA) broiler, plasma, po, 20 mg/kg, oral 20 mg/kg vs i.v. 10 mg/kg, 8-week old broilers): 48%
Cmax [2, 8]: 3.87 ± 0.96 µg/mL
Tmax [2, 8]: 37.8 ± 12.6 min
AUC(0-t) [2, 8]: 8.58 ± 1.88 µg·h/mL
half-life [2, 8]: 196 ± 72 min
Cmax [2, 9]: 2.93 ± 1.07 µg/mL
Tmax [2, 9]: 37.2 ± 11.4 min
AUC(0-t) [2, 9]: 4.91 ± 1.56 µg·h/mL
half-life [2, 9]: 56.4 ± 10.2 min
Cmax [2, 10]: 1.73 ± 0.48 µg/mL
Tmax [2, 10]: 120 ± 84.6 min
AUC(0-t) [2, 10]: 8.01 ± 1.65 µg·h/mL
bioavailability [2, 10]: 78.4%
half-life [2, 10]: 210 ± 201 min
ClB ([2]; intravenous 10 mg/kg, 4-week old broilers): 1.65 ± 0.54 L/h/kg
ClB ([2]; intravenous 10 mg/kg, 8-week old broilers): 2.14 ± 0.67 L/h/kg
Decrease of bioavailability in 8-week old broilers compared with 4-week old birds ([2]; oral 20 mg/kg): 31.3%
ClB [2, 11]: 2.43 ± 0.53 L/h/kg
Vd [2, 11]: 3.42 ± 1.18 L/kg
AUC0~12h [2, 12]: 8.58 (µg/mL)·h
Cl [2, 12]: 2.43 mg/kg/h/(μg/mL)
Vd [2, 12]: 3.42 (mg/kg)/(µg/mL)
ClB [2, 13]: 4.43 ± 1.46 L/h/kg
Vd [2, 13]: 5.64 ± 0.60 L/kg
ClB [2, 14]: 2.57 ± 0.52 L/h/kg
Vd [2, 14]: 7.39 ± 2.98 L/kg
AUC0~12h [2, 15]: 8.01 (µg/mL)·h
Cl [2, 15]: 2.57 mg/kg/h/(μg/mL)
AUC0~12h [2, 16]: 4.91 (µg/mL)·h
Cl [2, 16]: 4.43 mg/kg/h/(μg/mL)
Vd [2, 16]: 5.64 (mg/kg)/(µg/mL)
Papp A→B at 4 h, 50 μM [3, 17]: 3.7 ± 0.2 nm/s
Papp B→A at 4 h, 50 μM [3, 17]: 4.3 ± 0.1 nm/s
Papp A→B at 4 h, 50 μM [3, 18]: 2.8 ± 0.1 nm/s
Papp B→A at 4 h, 50 μM [3, 18]: 6.8 ± 0.4 nm/s
Substrate status for chicken BCRP (FDA criteria: NER over 2.0 and efflux reversed by inhibitor) [4]: substrate of chicken BCRP
Papp A→B at 4 h, 50 μM ([5]; with gefitinib (100 μM)): 3.7 ± 0.3 nm/s
Papp B→A at 4 h, 50 μM ([5]; with gefitinib (100 μM)): 3.9 ± 0.1 nm/s
Papp A→B at 4 h, 50 μM ([5]; without gefitinib): 4 ± 0.4 nm/s
Papp B→A at 4 h, 50 μM ([5]; without gefitinib): 4 ± 0.1 nm/s
